Measurements taken from patent US11666596B2, “Nucleotide, polypeptide and applications thereof” (THE FIRST AFFILIATED HOSPITAL, SUN YAT-SEN UNIVERSITY, priority 2017, dated 2023).
Ends that are not written are not given here.

Tested on: U251 cells
Assay: Verification of ability of micropeptide to enter cells (fluorescence microscopy)
Assay type: cell-based
Settings: FITC-attached micropeptide, 10 μM, 4 hours; all cells in sight were fluorescent; FIG. 4
Description: U251 cells were inoculated onto a glass slide at the density of 50%, and different concentrations of PTEN-31aa micropeptide attached with FITC fluorescent groups (the micropeptide was dissolved in DMSO with a concentration being 20 μg/μL, 5 mM) were added to treat cells for 4 hours, then fixed with Faure Marin, and observed and photographed under a fluorescence microscope.

MWRDSLCAAAGYALGAGTRLRSVLSSRKLQP [PTEN-31aa]
ability of micropeptide to enter U251 cells: could enter the U251 cells smoothly
